Assay results from patent publication US20080033026A1, “Antimicrobial compositions, methods and systems” (priority 2006, published 2008).

Experiments:
[1] = system: Serratia marcescens ATCC 990; experiment: Growth inhibition in MRS medium at various pH levels (OD600); type: cell-based; settings: 0.1% w/v (as 9DA)
Experimental: (§1) Efficacy of potassium salts of 9-DA was tested at various pH levels against the following: Serratia marcescens ATCC 990, and Bacillus cereus ATCC 14579.
(§2) Stock cultures of each organism were transferred into MRS liquid medium. MRS medium (Difco 288130) was purchased from Becton, Dickinson and Company, Sparks, Md.
(§3) The efficacy of potassium salts of 9-DA (K-9-DA) was tested at different concentrations and pH levels, including 6.75 (unadjusted), 7.5, and 8.5.
(§4) The selected organisms were incubated overnight in 5 ml of MRS medium at 35° C. and 250 rpm. MRS media with K-9-DA were prepared, along with a control of straight media (no antimicrobial added). The antimicrobial agents were added by weight/volume percent to the media. The purity of the composition, 99% for K-9-DA, was taken into account. The pH adjustments to 7.5 and 8.5 were done with 50% potassium hydroxide. Filter sterilization was used instead of autoclaving to prevent adverse chemical reactions at higher pH and temperature. The target for initial cell density was 10^5 to 10^6 cfu/ml. According to the McFarland standard, 0.01 OD600 is equivalent to approximately 10^8 cfu/ml. To achieve the proper dilution, 30 μl of overnight culture diluted to 0.01 OD600 was added to the 3 ml of media in each tube. The tubes were incubated at 35° C. with the exception of Pseudomonas strains which were incubated at 30° C. Treatments were all done in duplicate. All strains were shaken at 250 rpm. OD600 readings were taken at 0, 19, 25.5, 42.5 and 49 hours.
(§5) “Percent reduction in growth vs. control” was defined as (1−abs. of treatment/abs. of control)×100.

[2] = system: Bacillus cereus ATCC 14579; experiment: as above; type: cell-based; settings: 0.1% w/v (as 9DA)
Experimental: as §1, §2, §3, §4, §5

[3] = system: Pseudomonas straminea ATCC 33636; experiment: Growth inhibition in MRS medium (OD600); type: cell-based; settings: n = 2
Experimental: (§6) Efficacy of potassium salts of 9-DA were determined through incubation of the following organisms in the presence of varying concentrations of the potassium salt: Serratia marcescens ATCC 990, Pseudomonas straminea ATCC 33636, Bacillus subtilis ATCC 6051, Bacillus licheniformis ATCC 14580, Bacillus cereus ATCC 14579, Pediococcus acidilactici ATCC 8042, and Lactobacillus casei ATCC 334.
as §2
(§7) The efficacy of different levels of potassium salts of 9-DA (K-9-DA) was tested depending on the organism to inhibit the growth of various microorganisms indicated above.
(§8) The selected organisms were incubated overnight in 5 ml of MRS medium at 35° C. and 250 rpm. MRS media with K-9-DA were prepared, along with a control of straight media (no antimicrobial added). The concentrated antimicrobial agents were diluted with the appropriate media required for the respective microorganisms, to reach the required concentrations for the studies as indicated below. The antimicrobial agents were added by weight/volume percent on an ‘as 9-DA’ basis to the media. The purity of the antimicrobial agent (99% for K-9-DA) was taken into account. The pH of the medium was not adjusted. The target for initial cell density was 10^5 to 10^6 cfu/ml. According to the McFarland standard, 0.01 OD600 is equivalent to approximately 10^8 cfu/ml. To achieve the proper dilution, 30 μl of overnight culture diluted to 0.01 OD600 was added to the 3 ml of media in each tube. The tubes were incubated at 35° C. Treatments were all done in duplicate. All strains were shaken at 250 rpm, with the exception of Lactobacillus (because it is anaerobic). OD600 readings were taken at 0, 4, 17, 23 and 47 hours.
(§9) “Percent reduction in comparison with control” was defined as (1−abs. of treatment/abs. of control)×100.

[4] = system: Serratia marcescens ATCC 990; experiment: Growth inhibition in MRS medium (OD600); type: cell-based; settings: n = 2
Experimental: as §6, §2, §7, §8, §9

[5] = system: Lactobacillus casei ATCC 334; experiment: Growth inhibition in MRS medium (OD600); type: cell-based; settings: n = 2
Experimental: as §6, §2, §7, §8, §9

[6] = system: Pediococcus acidilactici ATCC 8042; experiment: Growth inhibition in MRS medium (OD600); type: cell-based; settings: n = 2
Experimental: as §6, §2, §7, §8, §9

[7] = system: Bacillus cereus ATCC 14579; experiment: Growth inhibition in MRS medium (OD600); type: cell-based; settings: n = 2
Experimental: as §6, §2, §7, §8, §9

[8] = system: Bacillus licheniformis ATCC 14580; experiment: Growth inhibition in MRS medium (OD600); type: cell-based; settings: n = 2
Experimental: as §6, §2, §7, §8, §9

[9] = system: Bacillus subtilis ATCC 6051; experiment: Growth inhibition in MRS medium (OD600); type: cell-based; settings: n = 2
Experimental: as §6, §2, §7, §8, §9

Pseudomonas straminea = experiment: Growth inhibition in MRS medium at various pH levels (OD600); type: cell-based; settings: 0.075% w/v (as 9DA)
[10] = Solubility studies in water and isopropanol (GC/FID); type: physicochemical; settings: mg 9-decenoic acid/g solvent
Experimental: For the antimicrobial agents of Formulae I-III, the solubility in an aqueous and an alcohol environment was studied. Solubility studies were carried out with the sodium (Na) and potassium (K) salts of 9-decenoic acid in water and isopropanol (IPA). Six samples were analyzed. The samples were as follows: Na salt in water, Na salt in IPA, K salt in water, K salt in IPA, 9-decenoic acid (protonated) in water, 9-decenoic acid (protonated) in IPA. For the protonated form of the acids, the samples were acidified and diluted in IPA and subjected to analysis by gas chromatography/flame ionization detector (GC/FID). The same procedure was followed for the Na and K salts in IPA. For the Na and K salts in water, the samples were acidified and then extracted with petroleum ether. The petroleum ether was then evaporated, and the samples were reconstituted in IPA, acidified and subjected to analysis by GC/FID. Concentrations were calculated by comparing the peak area of the sample to a calibration table of 9-decenoic acid. The calibration curve was linear from 1 mg/g to 500 mg/g. Results are reported in mg/g (mg 9-decenoic acid/g solvent).

[11] = system: organisms of Table 14 with the exception of Serratia marcescens, Bacillus licheniformis, and Lactobacillus casei; experiment: Growth inhibition in MRS medium (OD600), organisms of Table 14 except Serratia marcescens, Bacillus licheniformis, Lactobacillus casei; type: cell-based; settings: all concentrations tested
Experimental: as §6, §2, §7
The selected organisms were incubated overnight in 5 ml of MRS medium at 35° C. and 250 rpm. MRS media with K-9-DA were prepared, along with a control of straight media (no antimicrobial added). The concentrated antimicrobial agents were diluted with the appropriate media required for the respective microorganisms, to reach the required concentrations for the studies as indicated below. The antimicrobial agents were added by weight/volume percent on an ‘as 9-DA’ basis to the media. The purity of the antimicrobial agent (99% for K-9-DA) was taken into account. The pH of the medium was not adjusted. […] OD600 readings were taken at 0, 4, 17, 23 and 47 hours. […]

[12] = system: all organisms tested in Tables 15-17 with the exception of Serratia marcescens; experiment: Growth inhibition in MRS medium at various pH levels, organisms of Tables 15-17 except Serratia marcescens; type: cell-based
Experimental: as §1, §2, §3
as §4, with “The tubes were incubated at 35° C. with the exception of Pseudomonas strains which were incubated at 30° C. Treatments were all done in duplicate. All strains were shaken at 250 rpm.” left out, “hours. […]” for “hours.”

SMILES: C=CCCCCCCCC(=O)O.[K] [Potassium-9 Decenoic Acid]
- % reduction in growth vs. control ([1]; Non-pH adjusted (6.75)): 98.5%
- % reduction in growth vs. control ([1]; pH 7.5): 18.5%
- % reduction in growth vs. control ([1]; pH 8.5): 37.4%
- % reduction in growth vs. control ([2]; Non-pH adjusted (6.75)): 96.5%
- % reduction in growth vs. control ([2]; pH 7.5): 96.2%
- % reduction in growth vs. control ([2]; pH 8.5): 93.9%
- % reduction in growth vs. control ([3]; 0.05% w/v 9DA from K9DA): 96.9%
- Abs at 600 nm ([3]; 0.05% w/v 9DA from K9DA): 0.190
- % reduction in growth vs. control ([3]; 0.075% w/v 9DA from K9DA): 97.3%
- Abs at 600 nm ([3]; 0.075% w/v 9DA from K9DA): 0.165
- % reduction in growth vs. control ([4]; 0.075% w/v 9DA from K9DA): 97.7%
- Abs at 600 nm ([4]; 0.075% w/v 9DA from K9DA): 0.181
- % reduction in growth vs. control ([4]; 0.1% w/v 9DA from K9DA): 94.6%
- Abs at 600 nm ([4]; 0.1% w/v 9DA from K9DA): 0.412
- % reduction in growth vs. control ([5]; 0.05% w/v 9DA from K9DA): 93.3%
- Abs at 600 nm ([5]; 0.05% w/v 9DA from K9DA): 0.461
- % reduction in growth vs. control ([5]; 0.075% w/v 9DA from K9DA): 96.9%
- Abs at 600 nm ([5]; 0.075% w/v 9DA from K9DA): 0.211
- % reduction in growth vs. control ([6]; 0.025% w/v 9DA from K9DA): 100.0%
- Abs at 600 nm ([6]; 0.025% w/v 9DA from K9DA): −0.038
- % reduction in growth vs. control ([6]; 0.05% w/v 9DA from K9DA): 96.1%
- Abs at 600 nm ([6]; 0.05% w/v 9DA from K9DA): 0.224
- % reduction in growth vs. control ([7]; 0.075% w/v 9DA from K9DA): 98.4%
- Abs at 600 nm ([7]; 0.075% w/v 9DA from K9DA): 0.093
- % reduction in growth vs. control ([7]; 0.1% w/v 9DA from K9DA): 96.2%
- Abs at 600 nm ([7]; 0.1% w/v 9DA from K9DA): 0.216
- % reduction in growth vs. control ([8]; 0.075% w/v 9DA from K9DA): 88.6%
- Abs at 600 nm ([8]; 0.075% w/v 9DA from K9DA): 0.300
- % reduction in growth vs. control ([8]; 0.1% w/v 9DA from K9DA): 99.1%
- Abs at 600 nm ([8]; 0.1% w/v 9DA from K9DA): 0.023
- % reduction in growth vs. control ([9]; 0.05% w/v 9DA from K9DA): 97.3%
- Abs at 600 nm ([9]; 0.05% w/v 9DA from K9DA): 0.157
- % reduction in growth vs. control ([9]; 0.075% w/v 9DA from K9DA): 98.4%
- Abs at 600 nm ([9]; 0.075% w/v 9DA from K9DA): 0.094
- % reduction in growth vs. control (Pseudomonas straminea; Non-pH adjusted (6.75)): 98.6%
- % reduction in growth vs. control (Pseudomonas straminea; pH 7.5): 96.2%
- % reduction in growth vs. control (Pseudomonas straminea; pH 8.5): 93.9%
- Solubility, Concentration ([10]; in isopropanol): 10 mg/g
- Solubility, Concentration ([10]; in water): 240 mg/g
- reduction in growth when compared to controls [11]: ≥ 96%
- reduction in growth ([12]; pH 7.5, concentrations of Tables 15-17): 96%
- reduction in growth ([12]; pH 8.5, concentrations of Tables 15-17): 94%
